In patent US20110189311A1, “Highly Absorbable Drug Composition and Method of Producing the Same” (TOYO SUGAR REFINING CO., LTD., priority 2009, published 2011):

Assays:
[1] = Oral administration of drug compositions to rats, blood (plasma) drug concentration by HPLC and AUC; format: in vivo, wistar rats; conditions: average of five rats
Procedure: As test animals, 9-week-old male clean wistar rats (five rats for each of drug compositions A to F) were used. […] After the administration, blood was collected from the neck vein of each clean wistar rat at predetermined time intervals and was centrifuged (10000 rpm, 5 min) to obtain plasma. Four hundred microliters of methanol was added to 100 μL of the obtained plasma, and the mixture was mixed for 1 minute with a vortex mixer and was centrifuged (10000 rpm, 5 min). […] One hundred microliters of ethanol was added to the resulting dried substance, and the blood drug concentration was measured using a UV detector (JASCO PU-970) of HPLC (JASCO PU-980). […] Based on the thus-measured blood drug concentrations of the drug compositions, concentration changes with passage of time and areas under blood drug concentration-time curves (AUC) were studied. […] Note that the values of AUC and blood drug concentration in Table 1 and FIGS. 1 to 6 are averages in the five clean wistar rats administered with each of the drug compositions A to F, and “SE” means standard error.

[2] = at 37° C.; cited from earlier work
[3] = cited from earlier work

| SMILES | AUC (area under flurbiprofen plasma concentration-time curve) ([1]; flurbiprofen (FP), dose 2 mg/kg) [ng·h/mL] | solubility in neutral water [2] | AUC (area under probucol plasma concentration-time curve) ([1]; probucol (PRO), dose 200 mg/kg) [ng·h/mL] | bioavailability to human [3] |
| --- | --- | --- | --- | --- |
| CC(C(=O)O)c1ccc(-c2ccccc2)c(F)c1 (centres unmarked) [flurbiprofen] | 22060 | 25 μg/mL water |  |  |
| CC(C)(Sc1cc(C(C)(C)C)c(O)c(C(C)(C)C)c1)Sc1cc(C(C)(C)C)c(O)c(C(C)(C)C)c1 [probucol] |  | 3 to 5 ng/mL water | 4940 | about 5% |
